Experimental data as given in US20070219178A1, “PREVENTIVE OR THERAPEUTIC AGENTS FOR MULTIPLE SCLEROSIS” (Eisai Co., Ltd., priority 2003, published 2007).

Key:
[1] = system: experimental allergic encephalomyelitis (EAE) model; assay: Experimental allergic encephalomyelitis (EAE) model, EAE scores; assay type: in vivo, Male C57BL/6 mice; settings: MOG peptide-immunized mice; oral, 30 mg/kg in 0.5% MC, 10 ml/kg/administration, twice a day from post-immunization day 7; FIG. 1 and 2
[2] = target: T1, Porcine kidney-derived DPP-IV (Sus scrofa, UniProt P22411); assay: DPPIV-inhibiting activity assay; assay type: biochemical; settings: porcine kidney DPP-IV 10 mU/ml, Gly-Pro-p-nitroanilide 0.33 mM, 20 minutes, absorbance at 405 nm
T1 construct: Porcine kidney-derived DPP-IV was dissolved in a reaction buffer; from tissue; host or cells: porcine kidney
Description: DPPIV-Inhibiting Activity Assay
Porcine kidney-derived DPP-IV was dissolved in a reaction buffer (50 mM Tris-HCl (pH 7.4)/0.1% BSA) at a concentration of 10 mU/ml. After 110 μl of this solution had been combined with 15 μl of an agent, the mixture was incubated at room temperature for 20 minutes. 25 μl of 2 mM Gly-Pro-p-nitroanilide was added (to a final concentration of 0.33 mM) to the solution to initiate the enzyme reaction. The reaction time was 20 minutes. 25 μl of IN phosphoric acid solution was added to the reaction solution to quench the reaction.

T1 sequence (P22411 whole entry): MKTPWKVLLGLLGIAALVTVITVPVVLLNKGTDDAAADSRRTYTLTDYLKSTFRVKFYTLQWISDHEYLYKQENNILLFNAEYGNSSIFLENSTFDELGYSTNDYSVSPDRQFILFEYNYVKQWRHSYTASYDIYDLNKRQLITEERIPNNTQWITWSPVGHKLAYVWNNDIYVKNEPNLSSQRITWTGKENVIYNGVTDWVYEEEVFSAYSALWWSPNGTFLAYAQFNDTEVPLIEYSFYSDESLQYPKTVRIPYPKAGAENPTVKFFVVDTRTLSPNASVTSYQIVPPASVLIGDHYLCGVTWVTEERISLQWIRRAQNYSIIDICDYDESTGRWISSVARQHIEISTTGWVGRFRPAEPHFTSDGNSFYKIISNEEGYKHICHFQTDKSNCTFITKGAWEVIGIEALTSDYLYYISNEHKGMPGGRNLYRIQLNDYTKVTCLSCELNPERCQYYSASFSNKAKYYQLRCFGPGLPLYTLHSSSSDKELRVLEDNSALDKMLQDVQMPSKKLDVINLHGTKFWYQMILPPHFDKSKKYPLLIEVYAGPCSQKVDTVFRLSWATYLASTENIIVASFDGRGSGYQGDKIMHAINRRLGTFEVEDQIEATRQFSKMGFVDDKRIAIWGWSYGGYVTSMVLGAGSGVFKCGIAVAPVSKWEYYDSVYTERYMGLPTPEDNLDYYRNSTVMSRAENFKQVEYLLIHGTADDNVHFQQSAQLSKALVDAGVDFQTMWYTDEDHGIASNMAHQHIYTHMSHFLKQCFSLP

CC#CCn1c(N2CCNCC2)nc2c1c(=O)n(C)c(=O)n2C [Compound 1X, 7-(2-butynyl)-1,3-dimethyl-8-(piperazin-1-yl)-3,7-dihydropurine-2,6-dione]
effect on development of EAE symptoms compared to control group (MC solution) [1]: definite suppressing effects

CC#CCn1c(N2CCCC(N)C2)nc2cnn(C)c(=O)c21.O=C(O)C(F)(F)F (stereo not shown) [Example 120, 2-(3-Aminopiperidin-1-yl)-3-(2-butynyl)-5-methyl-3,5-dihydroimidazo[4,5-d]pyridazin-4-one trifluoroacetate]
effect on development of EAE symptoms compared to control group (MC solution) [1]: definite suppressing effects

Methyl 2-[7-(2-butynyl)-1-methyl-6-oxo-8-(piperazin-1-yl)-6,7-dihydro-1H-purin-2-yloxy]phenylacetate trifluoroacetate [Example 4]
IC50 [2]: 211 nM

CC#CCn1c(N2CCNCC2)nc2nc(Oc3ccccc3C(N)=O)n(C)c(=O)c21 [Example 122, 2-[7-(2-Butynyl)-1-methyl-6-oxo-8-(piperazin-1-yl)-6,7-dihydro-1H-purin-2-yloxy]benzamide]
effect on development of EAE symptoms compared to control group (MC solution) [1]: definite suppressing effects
